Test results taken from patent publication US11208405B2, “Pyrrole derivatives as PLK1 inhibitors” (SENTINEL ONCOLOGY LIMITED, priority 2017, dated 2021).
Counter-ions that a name gives are not always drawn. Like-named read-outs stand apart in the source and are kept apart here.

Tests used:
[1] = test system: glioblastoma cell line 687586; assay: Glioblastoma cancer cell viability, cell line 687586; type: cell-based
Experimental: (§1) Assay to Measure the Effects of Compounds of the Invention on Glioblastoma Cancer Cell Viability
(§2) The compound of Example 33 was tested for inhibitory activity against the glioblastoma cell lines in Table 7 below.

[2] = test system: HCT116 xenograft tumours; assay: In vivo anti-cancer activity in mice bearing HCT116 tumours; conditions: oral 50 mg/kg or 200 m/kg on days 1, 3, 7, 10 and 13, dose of the T/C value not stated
Experimental: In Vivo Anti-Cancer Activity in Mice Bearing HCT116 Tumours
Mice bearing HCT116 xenograft tumours were give oral dosages of either 50 mg/kg or […] on days 1, 3, 7, 10 and 13 and the tumour volumes measured at days 1, 3, 5, 8, 10, 12 and 15. Tumour volumes in a control group of tumour-bearing mice, who had received vehicle only at the same time points were also measured.

[3] = target: T1, TBK1 (Homo sapiens, UniProt Q9UHD2); assay: Kinase selectivity assay (DiscoverX KinomeScreen), TBK1; type: binding; conditions: TBK1, 5 μM; read-out: % Control
T1 construct: purchased DiscoverX
T1 sequence (Q9UHD2 whole entry): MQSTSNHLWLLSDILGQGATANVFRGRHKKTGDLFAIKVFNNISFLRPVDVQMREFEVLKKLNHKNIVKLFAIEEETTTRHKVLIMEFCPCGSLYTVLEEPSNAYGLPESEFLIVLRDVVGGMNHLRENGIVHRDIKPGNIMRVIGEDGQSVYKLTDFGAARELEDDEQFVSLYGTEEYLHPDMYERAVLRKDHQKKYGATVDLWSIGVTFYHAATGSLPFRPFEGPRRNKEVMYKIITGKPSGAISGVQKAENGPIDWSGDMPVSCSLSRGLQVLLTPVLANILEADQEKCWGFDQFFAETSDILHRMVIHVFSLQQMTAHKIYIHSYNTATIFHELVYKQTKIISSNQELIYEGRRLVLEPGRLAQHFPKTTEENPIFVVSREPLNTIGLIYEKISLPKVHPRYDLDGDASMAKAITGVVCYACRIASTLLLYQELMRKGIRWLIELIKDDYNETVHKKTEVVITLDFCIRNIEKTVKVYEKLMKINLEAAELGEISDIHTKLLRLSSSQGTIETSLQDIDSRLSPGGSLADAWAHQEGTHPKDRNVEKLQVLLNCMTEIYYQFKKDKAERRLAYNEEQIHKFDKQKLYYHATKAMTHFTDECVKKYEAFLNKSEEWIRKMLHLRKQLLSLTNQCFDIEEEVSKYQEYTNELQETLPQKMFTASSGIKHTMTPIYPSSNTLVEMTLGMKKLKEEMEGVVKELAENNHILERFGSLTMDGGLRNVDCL
Experimental: (§3) The compound of Example 33 was tested for off-target activity against a panel of fifty five kinases bearing functional or structural similarity to PLK1 at a concentration of 5 μM using the DiscoverX KinomeScreen assay.

[4] = target: T2, IKBKE (Homo sapiens, UniProt Q14164); assay: Kinase selectivity assay (DiscoverX KinomeScreen), IKBKE; type: binding; conditions: read-out: % Control
T2 construct: purchased DiscoverX
Experimental: as §3

[5] = target: cytochrome P450 3A4 (Homo sapiens, UniProt P08684); assay: Cytochrome P450 inhibition, 3A4; type: in vitro ADME
cytochrome P450 3A4, sequence (P08684 whole entry): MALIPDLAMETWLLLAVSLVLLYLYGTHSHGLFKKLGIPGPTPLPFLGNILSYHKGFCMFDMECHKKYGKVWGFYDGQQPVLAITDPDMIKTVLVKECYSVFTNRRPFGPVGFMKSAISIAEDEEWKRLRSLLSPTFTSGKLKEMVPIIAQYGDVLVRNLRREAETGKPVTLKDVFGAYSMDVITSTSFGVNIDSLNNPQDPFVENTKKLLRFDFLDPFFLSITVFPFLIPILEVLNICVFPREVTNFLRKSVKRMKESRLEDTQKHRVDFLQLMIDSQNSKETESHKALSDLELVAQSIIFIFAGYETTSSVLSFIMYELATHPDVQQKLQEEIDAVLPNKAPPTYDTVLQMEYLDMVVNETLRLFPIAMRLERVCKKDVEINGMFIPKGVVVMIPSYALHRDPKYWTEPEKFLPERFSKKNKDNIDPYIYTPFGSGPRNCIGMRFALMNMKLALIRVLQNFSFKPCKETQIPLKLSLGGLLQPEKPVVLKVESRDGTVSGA

[6] = target: T3, ROCK2 (Homo sapiens, UniProt O75116); assay: Kinase selectivity assay (DiscoverX KinomeScreen), ROCK2; type: binding; conditions: ROCK2, 5 μM; read-out: % Control
T3 construct: purchased DiscoverX
Experimental: as §3

[7] = target: T4, SgK110 (Homo sapiens, UniProt P0C264); assay: Kinase selectivity assay (DiscoverX KinomeScreen), SgK110; type: binding; conditions: SgK110, 5 μM; read-out: % Control
T4 construct: purchased DiscoverX
T4 sequence (P0C264 whole entry): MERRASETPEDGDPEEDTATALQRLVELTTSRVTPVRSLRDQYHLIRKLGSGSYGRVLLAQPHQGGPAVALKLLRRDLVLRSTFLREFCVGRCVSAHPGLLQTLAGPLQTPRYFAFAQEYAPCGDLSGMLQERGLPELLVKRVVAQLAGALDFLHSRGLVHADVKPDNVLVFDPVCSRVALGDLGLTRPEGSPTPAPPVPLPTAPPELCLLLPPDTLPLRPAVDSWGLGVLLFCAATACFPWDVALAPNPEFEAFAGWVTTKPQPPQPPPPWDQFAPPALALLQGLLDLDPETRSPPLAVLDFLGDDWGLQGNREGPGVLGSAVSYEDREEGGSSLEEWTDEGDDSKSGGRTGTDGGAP
Experimental: as §3

[8] = test system: glioblastoma cell line 1240170; assay: Glioblastoma cancer cell viability, cell line 1240170; type: cell-based
Experimental: as §1, §2

[9] = test system: glioblastoma cell line 949094; assay: Glioblastoma cancer cell viability, cell line 949094; type: cell-based
Experimental: as §1, §2

[10] = target: T5, PKMYT1 (Homo sapiens, UniProt Q99640); assay: Kinase selectivity assay (DiscoverX KinomeScreen), PKMYT1; type: binding; conditions: PKMYT1, 5 μM; read-out: % Control
T5 construct: purchased DiscoverX
T5 sequence (Q99640 whole entry): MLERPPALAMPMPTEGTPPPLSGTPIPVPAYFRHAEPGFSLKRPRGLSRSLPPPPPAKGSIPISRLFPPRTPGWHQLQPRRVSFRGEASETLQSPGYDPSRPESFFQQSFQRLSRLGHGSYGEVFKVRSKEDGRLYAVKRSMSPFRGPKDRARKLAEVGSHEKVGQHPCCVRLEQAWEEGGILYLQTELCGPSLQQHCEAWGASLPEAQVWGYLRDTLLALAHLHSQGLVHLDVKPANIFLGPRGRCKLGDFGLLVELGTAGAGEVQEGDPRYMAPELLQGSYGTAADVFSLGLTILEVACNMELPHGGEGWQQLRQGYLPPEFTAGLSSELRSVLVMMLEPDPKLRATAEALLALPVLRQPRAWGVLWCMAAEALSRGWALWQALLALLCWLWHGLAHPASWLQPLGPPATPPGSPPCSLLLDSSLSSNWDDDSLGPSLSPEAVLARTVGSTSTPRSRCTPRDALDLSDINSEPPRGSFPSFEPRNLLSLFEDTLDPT
Experimental: as §3

[11] = test system: glioblastoma cell line 909905; assay: Glioblastoma cancer cell viability, cell line 909905; type: cell-based
Experimental: as §1, §2

[12] = test system: glioblastoma cell line 908145; assay: Glioblastoma cancer cell viability, cell line 908145; type: cell-based
Experimental: as §1, §2

[13] = test system: glioblastoma cell line 907313; assay: Glioblastoma cancer cell viability, cell line 907313; type: cell-based
Experimental: as §1, §2

[14] = target: T6, CDK2 (Homo sapiens, UniProt P24941); assay: Kinase selectivity assay (DiscoverX KinomeScreen), CDK2; type: binding; conditions: CDK2, 5 μM; read-out: % Control
T6 construct: purchased DiscoverX
Experimental: as §3

[15] = target: T7, ULK3 (Homo sapiens, UniProt Q6PHR2); assay: Kinase selectivity assay (DiscoverX KinomeScreen), ULK3; type: binding; conditions: ULK3, 5 μM; read-out: % Control
T7 construct: purchased DiscoverX
Experimental: as §3

[16] = test system: KRAS G12V HeLa cell line; assay: Wild-type versus KRAS HeLa cell viability: oncogenic KrasG12V transgene; type: cell-based; conditions: Homo sapiens; HeLa cells expressing KRAS G12V, 72 hours
Experimental: Assay to Measure the Effects of Compounds of the Invention on Wild-Type Versus KRAS HeLa Cell Viability
Identifying synthetic lethal interactions between targeted small molecule therapies and characterised oncogenic mutations is a goal of modern oncology drug discovery efforts. To this end, PLK1-PBD inhibitors were tested on HeLa cells engineered to inducibly express wild-type or oncogenic KrasG12V transgenes using the FLP-in/T-Rex system (Invitrogen). Cells were plated, and then treated with or without Doxycycline to induce transgene expression, and then treated with serially-diluted PBD inhibitors. After 72 hours of incubation, cell viability was assessed using the Cell Titre Blue reagent (Promega) and a BMG Pherastar plate reader. The effect of PBD inhibition on cell viability with either wild-type or oncogenic G12V KRAS was assessed using the graphing/curve-fitting packages in GraphPad Prism.

[17] = test system: glioblastoma cell line 946368; assay: Glioblastoma cancer cell viability, cell line 946368; type: cell-based
Experimental: as §1, §2

[18] = Determination of brain exposure following oral dosing in mice; type: in vivo, male CD-1 mice; conditions: male, CD-1, mouse, 10 mg/Kg PO
Experimental: Determination of Brain Exposure Following Oral Dosing in Mice An experiment was carried out on the compound of Example 33 to determine the extent of its brain penetration following oral dosing in mice. The following protocol was used. 15 male CD-1 mice (n=3/time point) were dosed perorally with the compound of Example 33 (10 mg/kg; dose concentration 1 mg/ml; dose volume 10 mL/kg). […] Animals were housed in pre-assigned housing cages until sampling. Appropriate samples were taken at […] time points and stored immediately at −20° C. Homogenisation and protein precipitation with acetonitrile was carried out for plasma and brain. Analysis was carried out with tandem mass spectrometry using electrospray ionisation. The results of the experiment are shown in FIG. 2 and in Table 10 below.

[19] = target: T8, NEK2 (Homo sapiens, UniProt P51955); assay: Kinase selectivity assay (DiscoverX KinomeScreen), NEK2; type: binding; conditions: NEK2, 5 μM; read-out: % Control
T8 construct: purchased DiscoverX
T8 sequence (P51955 whole entry): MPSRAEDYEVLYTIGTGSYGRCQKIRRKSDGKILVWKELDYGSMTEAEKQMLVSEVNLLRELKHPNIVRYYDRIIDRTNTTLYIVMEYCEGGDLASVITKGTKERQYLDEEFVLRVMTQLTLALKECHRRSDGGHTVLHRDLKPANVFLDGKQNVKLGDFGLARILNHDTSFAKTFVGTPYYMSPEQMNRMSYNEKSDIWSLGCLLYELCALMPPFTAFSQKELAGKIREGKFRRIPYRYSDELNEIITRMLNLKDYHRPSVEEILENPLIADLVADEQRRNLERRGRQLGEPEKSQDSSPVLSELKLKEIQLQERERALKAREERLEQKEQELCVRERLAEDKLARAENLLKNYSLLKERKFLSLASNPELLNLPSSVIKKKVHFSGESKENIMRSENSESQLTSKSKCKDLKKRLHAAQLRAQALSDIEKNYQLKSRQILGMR
Experimental: as §3

[20] = test system: glioblastoma cell line 909745; assay: Glioblastoma cancer cell viability, cell line 909745; type: cell-based
Experimental: as §1, §2

[21] = target: T9, ULK2 (Homo sapiens, UniProt Q8IYT8); assay: Kinase selectivity assay (DiscoverX KinomeScreen), ULK2; type: binding; conditions: ULK2, 5 μM; read-out: % Control
T9 construct: purchased DiscoverX
T9 sequence (Q8IYT8 whole entry): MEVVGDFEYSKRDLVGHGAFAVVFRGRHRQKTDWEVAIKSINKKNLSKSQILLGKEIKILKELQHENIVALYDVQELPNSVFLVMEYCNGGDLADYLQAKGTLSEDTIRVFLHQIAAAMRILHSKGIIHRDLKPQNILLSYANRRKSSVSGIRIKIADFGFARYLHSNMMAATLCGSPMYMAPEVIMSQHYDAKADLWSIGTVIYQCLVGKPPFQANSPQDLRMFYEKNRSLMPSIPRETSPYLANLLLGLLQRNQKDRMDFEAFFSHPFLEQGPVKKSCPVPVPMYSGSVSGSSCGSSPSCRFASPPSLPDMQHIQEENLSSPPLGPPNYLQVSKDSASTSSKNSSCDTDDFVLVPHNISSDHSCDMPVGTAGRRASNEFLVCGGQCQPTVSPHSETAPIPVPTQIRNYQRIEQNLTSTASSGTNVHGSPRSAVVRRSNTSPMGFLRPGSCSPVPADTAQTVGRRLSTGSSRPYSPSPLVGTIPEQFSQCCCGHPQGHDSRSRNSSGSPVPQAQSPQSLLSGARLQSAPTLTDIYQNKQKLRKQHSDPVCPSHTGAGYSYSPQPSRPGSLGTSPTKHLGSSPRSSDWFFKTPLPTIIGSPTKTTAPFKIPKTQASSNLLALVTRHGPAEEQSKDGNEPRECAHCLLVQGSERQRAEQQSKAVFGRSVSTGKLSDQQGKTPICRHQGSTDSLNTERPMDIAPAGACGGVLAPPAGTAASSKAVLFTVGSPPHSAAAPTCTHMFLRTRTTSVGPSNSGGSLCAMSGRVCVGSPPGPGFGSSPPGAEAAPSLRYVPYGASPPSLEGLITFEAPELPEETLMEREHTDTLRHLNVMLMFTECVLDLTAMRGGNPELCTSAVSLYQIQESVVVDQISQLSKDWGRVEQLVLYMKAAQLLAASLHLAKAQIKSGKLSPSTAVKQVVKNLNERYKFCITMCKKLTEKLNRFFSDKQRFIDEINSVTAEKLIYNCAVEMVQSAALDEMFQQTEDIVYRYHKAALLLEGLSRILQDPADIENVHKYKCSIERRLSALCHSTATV
Experimental: as §3

[22] = target: T10, WNK3 (Homo sapiens, UniProt Q9BYP7); assay: Kinase selectivity assay (DiscoverX KinomeScreen), WNK3; type: binding; conditions: WNK3, 5 μM; read-out: % Control
T10 construct: purchased DiscoverX
Experimental: as §3

[23] = target: T11, CSNK2A1 (Homo sapiens, UniProt P68400); assay: Kinase selectivity assay (DiscoverX KinomeScreen), CSNK2A1; type: binding; conditions: CSNK2A1, 5 μM; read-out: % Control
T11 construct: purchased DiscoverX
T11 sequence (P68400 whole entry): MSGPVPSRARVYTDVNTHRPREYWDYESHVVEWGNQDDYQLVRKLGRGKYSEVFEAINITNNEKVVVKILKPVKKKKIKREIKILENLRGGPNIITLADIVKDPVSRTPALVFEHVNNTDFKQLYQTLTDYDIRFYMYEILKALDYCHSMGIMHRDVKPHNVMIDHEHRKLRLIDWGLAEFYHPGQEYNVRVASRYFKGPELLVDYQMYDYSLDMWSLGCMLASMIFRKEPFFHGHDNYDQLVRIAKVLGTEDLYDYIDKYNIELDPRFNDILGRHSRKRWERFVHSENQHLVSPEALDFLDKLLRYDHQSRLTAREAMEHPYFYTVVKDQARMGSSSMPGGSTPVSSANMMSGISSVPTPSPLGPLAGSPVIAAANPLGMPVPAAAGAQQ
Experimental: as §3

[24] = test system: glioblastoma cell line 908144; assay: Glioblastoma cancer cell viability, cell line 908144; type: cell-based
Experimental: as §1, §2

[25] = Stability in human hepatocytes; type: in vitro ADME
[26] = test system: glioblastoma cell line 907279; assay: Glioblastoma cancer cell viability, cell line 907279; type: cell-based
Experimental: as §1, §2

[27] = target: T12, NEK4 (Homo sapiens, UniProt P51957); assay: Kinase selectivity assay (DiscoverX KinomeScreen), NEK4; type: binding; conditions: NEK4, 5 μM; read-out: % Control
T12 construct: purchased DiscoverX
T12 sequence (P51957 whole entry): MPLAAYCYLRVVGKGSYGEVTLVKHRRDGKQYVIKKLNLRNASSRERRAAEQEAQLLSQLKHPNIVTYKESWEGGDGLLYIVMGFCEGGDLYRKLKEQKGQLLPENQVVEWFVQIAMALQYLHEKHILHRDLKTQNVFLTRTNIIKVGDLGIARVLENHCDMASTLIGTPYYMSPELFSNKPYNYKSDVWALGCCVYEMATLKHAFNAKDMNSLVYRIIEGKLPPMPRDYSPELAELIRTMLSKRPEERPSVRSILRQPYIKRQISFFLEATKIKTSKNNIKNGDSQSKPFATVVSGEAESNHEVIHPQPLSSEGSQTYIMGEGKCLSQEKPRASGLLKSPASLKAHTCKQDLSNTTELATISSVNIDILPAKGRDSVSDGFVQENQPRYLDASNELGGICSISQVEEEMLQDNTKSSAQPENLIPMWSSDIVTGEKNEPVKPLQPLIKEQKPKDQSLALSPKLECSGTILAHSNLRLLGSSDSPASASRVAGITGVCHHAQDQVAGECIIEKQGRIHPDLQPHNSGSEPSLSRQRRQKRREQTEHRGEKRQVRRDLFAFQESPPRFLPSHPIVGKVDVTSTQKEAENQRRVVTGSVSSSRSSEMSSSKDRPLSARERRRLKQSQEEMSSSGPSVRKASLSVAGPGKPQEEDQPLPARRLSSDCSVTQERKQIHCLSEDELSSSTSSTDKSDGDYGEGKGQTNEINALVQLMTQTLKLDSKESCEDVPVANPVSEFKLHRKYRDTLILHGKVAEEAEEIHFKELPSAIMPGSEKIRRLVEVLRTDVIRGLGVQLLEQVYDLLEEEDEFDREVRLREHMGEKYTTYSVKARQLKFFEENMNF
Experimental: as §3

## CN(C)CCNC(=O)c1ccc(-c2ccc(-c3ccc(Cl)cc3)n2-c2ccccc2C(F)(F)F)cc1 [Example 33, 4-[5-(4-chlorophenyl)-1-[2-(trifluoromethyl)phenyl]pyrrol-2-yl]-N-[2-(dimethylamino)ethyl]benzamide Hydrochloride]
[1]
  IC50: 489 nM
[2]
  effect on tumour growth (T/C): 48%
[3]
  remaining activity at 5 µM: 80%
[4]
  remaining activity at 5 µM: 75%
[5]
  cytochrome P450 inhibition 3A4: > 10 µM
[6]
  remaining activity at 5 µM: 100%
[7]
  remaining activity at 5 µM: 100%
[8]
  IC50: 363 nM
[9]
  IC50: 709 nM
[10]
  remaining activity at 5 µM: 100%
[11]
  IC50: 276 nM
[12]
  IC50: 223 nM
[13]
  IC50: 1110 nM
[14]
  remaining activity at 5 µM: 89%
[15]
  remaining activity at 5 µM: 88%
[16]
  GI50: 10 nM
[17]
  IC50: 1400 nM
[18]; brain, read-out: AUClast (Brain)
  AUC(0-t): 31900 ng·h/mL
[18]; brain, read-out: Tmax (Brain)
  Tmax: 24 h
[18]; plasma, read-out: AUClast (Plasma)
  AUC(0-t): 5030 ng·h/mL
[18]; plasma, read-out: Tmax (Plasma)
  Tmax: 8 h
[19]
  remaining activity at 5 µM: 94%
[20]
  IC50: 1370 nM
[21]
  remaining activity at 5 µM: 100%
[22]
  remaining activity at 5 µM: 100%
[23]
  remaining activity at 5 µM: 96%
[24]
  IC50: 2420 nM
[25]
  hepatocyte CLint: 10 µL/min/1e6 cells
[26]
  IC50: 27800 nM
[27]
  remaining activity at 5 µM: 100%
